Measured values: patent publication US12157730B2, “Heteroaryl derivative, method for producing same, and pharmaceutical composition comprising same as effective component” (VORONOI INC., priority 2019, dated 2024)

Biological target: T1, Ba/F3 cell EGFR Exon20 ins NPH (Homo sapiens, UniProt P00533, INS773NPH)
T1 construct: expressed in transfected cells; host or cells: Ba/F3
Assay: Ba/F3 cell proliferation suppression, EGFR Exon20 ins NPH
Assay type: cell-based
Details: GI50 class; Ba/F3 cell line with NPH inserted at Exon20 of EGFR; 72 hours
Method in brief: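 Growth suppression determined as GI50 following 72 h exposure across 12 concentrations up to 50 um, with viability by luminescent ATP assay (CellTiter-Glo).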

Ba/F3 (NPH) Activity | Compound
A (GI50 < 50 nM) | C=CC(=O)Nc1cc(Nc2cc(N3OCC[C@@H]3c3ccc(F)c(Cl)c3)ncn2)c(OC)cc1N1CC[C@H](N(C)C)C1 [compound 906, N-(5-((6-((R)-3-(3-chloro-4-fluorophenyl)isoxazolidine-2-yl)pyrimidine-4-yl)amino)-2-((S)-3-(dimethylamino)pyrolidine-1-yl)-4-methoxyphenyl) acrylamide]
A (GI50 < 50 nM) | C=CC(=O)Nc1cc(Nc2cc(N3OCC[C@@H]3c3cccc(Cl)c3)ncn2)c(OC)cc1N1CCC(N2CC[C@@H](N(C)C)C2)CC1 [compound 413, N-(5-((6-((R)-3-(3-chlorophenyl)isoxazolidine-2-yl)pyrimidine-4-yl)amino)-2-(4-((R)-3-(dimethylamino)pyrolidine-1-yl)piperidine-1-yl)-4-methoxyphenyl) acrylamide]
A (GI50 < 50 nM) | C=CC(=O)Nc1cc(Nc2cc(N3OCC[C@@H]3c3ccc(Cl)c(Cl)c3)ncn2)c(OC)cc1N1CCN(CC)CC1 [compound 672, N-(5-((6-((R)-3-(3,4-dichlorophenyl)isoxazolidine-2-yl)pyrimidine-4-yl)amino)-2-(4-ethylpiperazine-1-yl)-4-methoxyphenyl) acrylamide]
A (GI50 < 50 nM) | C=CC(=O)Nc1cc(Nc2cc(N3OCC[C@@H]3Cc3cccc(F)c3C)ncn2)c(OC)cc1N1CCC(N2C[C@H]3C[C@@H]2CO3)CC1 [compound 1039, N-(2-(4-((1R,4R)-2-oxa-5-azabicyclo [2.2.1]heptane-5-yl)piperidine-1-yl)-5-((6-((S)-3-(3-fluoro-2-methylbenzyl)isoxazolidine-2-yl)pyrimidine-4-yl)amino)-4-methoxyphenyl) acrylamide]
A (GI50 < 50 nM) | C=CC(=O)Nc1cc(Nc2cc(N3OCC[C@@H]3c3cccc4ccccc34)ncn2)c(OC)cc1N1CCC(N2CCN(C(C)C)CC2)CC1 [compound 490, N-(2-(4-(4-isopropylpiperazine-1-yl)piperidine-1-yl)-4-methoxy-5-((6-((R)-3-(naphthalene-1-yl)isoxazolidine-2-yl)pyrimidine-4-yl)amino)phenyl)acrylamide]
A (GI50 < 50 nM) | C=CC(=O)Nc1cc(Nc2cc(N3OCC[C@@H]3c3cccc(OC)c3)ncn2)c(OC)cc1N1CCC(N2CC[C@@H](N(C)C)C2)CC1 [compound 728, N-(2-(4-((R)-3-(dimethylamino)pyrolidine-1-yl)piperidine-1-yl)-4-methoxy-5-((6-((R)-3-(3-methoxyphenyl)isoxazolidine-2-yl)pyrimidine-4-yl)amino)phenyl)acrylamide]
A (GI50 < 50 nM) | C=CC(=O)Nc1cc(Nc2cc(N3OCC[C@@H]3c3ccc(Cl)c(F)c3)ncn2)c(OC)cc1N1CCN(CC)CC1 [compound 798, N-(5-((6-((R)-3-(4-chloro-3-fluorophenyl)isoxazolidine-2-yl)pyrimidine-4-yl)amino)-2-(4-ethylpiperazine-1-yl)-4-methoxyphenyl) acrylamide]
A (GI50 < 50 nM) | C=CC(=O)Nc1cc(Nc2cc(N3OCC[C@@H]3c3ccc(Cl)c(Cl)c3F)ncn2)c(OC)cc1N1CCC(N2C[C@@H]3C[C@H]2CO3)CC1 [compound 770, N-(2-(4-((1S,4S)-2-oxa-5-azabicyclo [2.2.1]heptane-5-yl)piperidine-1-yl)-5-((6-((R)-3-(3,4-dichloro-2-fluorophenyl)isoxazolidine-2-yl)pyrimidine-4-yl)amino)-4-methoxyphenyl) acrylamide]
B (50 nM ≤ GI50 < 500 nM) | C=CC(=O)Nc1cc(Nc2cc(N3OCC[C@@H]3c3cc(F)cc(F)c3)ncn2)c(OC)cc1N1CCC(N2CCO[C@H](C)C2)CC1 [compound 758, N-(5-((6-((R)-3-(3,5-difluorophenyl)isoxazolidine-2-yl)pyrimidine-4-yl)amino)-4-methoxy-2-(4-((R)-2-methylmorpholino)piperidine-1-yl)phenyl) acrylamide]
A (GI50 < 50 nM) | C=CC(=O)Nc1cc(Nc2cc(N3OCC[C@@H]3c3ccc(F)c(F)c3F)ncn2)c(OC)cc1N1CCC(N(C)C)CC1 [compound 573, N-(2-(4-(dimethylamino)piperidine-1-yl)-4-methoxy-5-((6-((R)-3-(2,3,4-trifluorophenyl)isoxazolidine-2-yl)pyrimidine-4-yl)amino)phenyl)acrylamide]
A (GI50 < 50 nM) | C=CC(=O)Nc1cc(Nc2cc(N3OCC[C@@H]3c3ccc(F)c(F)c3F)ncn2)c(OC)cc1N1CCC(N2C[C@@H](C)O[C@@H](C)C2)CC1 [compound 576, N-(2-(4-((2S,6R)-2,6-dimethylmorpholino)piperidine-1-yl)-4-methoxy-5-((6-((R)-3-(2,3,4-trifluorophenyl)isoxazolidine-2-yl)pyrimidine-4-yl)amino)phenyl)acrylamide]
C (500 nM ≤ GI50 < 5000 nM) | C=CC(=O)Nc1cc(Nc2cc(N3OCC[C@@H]3c3ccc(C)nc3)ncn2)c(OC)cc1N1C[C@@H]2C[C@H]1CO2 [Example 233, N-(2-((1S,4S)-2-oxa-5-azabicyclo[2.2.1]heptane-5-yl)-4-methoxy-5-((6-((R)-3-(6-methylpyridine-3-yl)isoxazolidine-2-yl)pyrimidine-4-yl)amino)phenyl) acrylamide]
A (GI50 < 50 nM) | C=CC(=O)Nc1cc(Nc2cc(N3OCC[C@@H]3c3cccc(F)c3)ncn2)c(OC)cc1N1CCC(N2CCN(C)CC2)CC1 [Example 31, N-(5-((6-((R)-3-(3-fluorophenyl)isoxazolidine-2-yl)pyrimidine-4-yl)amino)-4-methoxy-2-(4-(4-methylpiperazine-1-yl)piperidine-1-yl)phenyl) acrylamide]
A (GI50 < 50 nM) | C=CC(=O)Nc1cc(Nc2cc(N3OCC[C@@H]3c3cc(F)ccc3F)ncn2)c(OC)cc1N1CCC(N2CC[C@@H](N(C)C)C2)CC1 [compound 304, N-(5-((6-((R)-3-(2,5-difluorophenyl)isoxazolidine-2-yl)pyrimidine-4-yl)amino)-2-(4-((R)-3-(dimethylamino)pyrolidine-1-yl)piperidine-1-yl)-4-methoxyphenyl) acrylamide]
A (GI50 < 50 nM) | C=CC(=O)Nc1cc(Nc2cc(N3OCC[C@@H]3c3cccc(C(F)(F)F)c3)ncn2)c(OC)cc1N1CC[C@@H](N2CCOCC2)C1 [compound 506, N-(4-methoxy-2-((R)-3-morpholinopyrolidine-1-yl)-5-((6-((R)-3-(3-(trifluoromethyl)phenyl)isoxazolidine-2-yl)pyrimidine-4-yl)amino)phenyl)acrylamide]
A (GI50 < 50 nM) | C=CC(=O)Nc1cc(Nc2cc(N3OCC[C@@H]3c3ccc(Cl)cc3)ncn2)c(OC)cc1N1CCC(N2CCN(C3CCC3)CC2)CC1 [Example 75, N-(5-((6-((R)-3-(4-chlorophenyl)isoxazolidine-2-yl)pyrimidine-4-yl)amino)-2-(4-(4-cyclobutylpiperazine-1-yl)piperidine-1-yl)-4-methoxyphenyl) acrylamide]

Compound | Ba/F3 (NPH) Activity
C=CC(=O)Nc1cc(Nc2cc(N3OCC[C@@H]3c3cc(F)ccc3F)ncn2)c(OC)cc1N1CCC(N2CC3CCC(C2)N3C2CC2)CC1 [Example 134, N-(2-(4-(8-cyclopropyl-3,8-diazabicyclo[3.2.1]octan-3-yl)piperidine-1-yl)-5-((6-((R)-3-(2,5-difluorophenyl)isoxazolidine-2-yl)pyrimidine-4-yl)amino)-4-methoxyphenyl) acrylamide] | A (GI50 < 50 nM)
